From patent US11180474B2 (BRISTOL-MYERS SQUIBB COMPANY, priority 2016, dated 2021) come the findings set out here.

Usually IC50 stands for the point on the concentration scale where inhibition reaches its midpoint. Lower therefore signals greater potency in that assay.

One test deals with T1, human TLR7 (Homo sapiens, UniProt Q9NYK1).
T1 construct: host or cells: HEK-Blue cells
T1 sequence (Q9NYK1 27-1049): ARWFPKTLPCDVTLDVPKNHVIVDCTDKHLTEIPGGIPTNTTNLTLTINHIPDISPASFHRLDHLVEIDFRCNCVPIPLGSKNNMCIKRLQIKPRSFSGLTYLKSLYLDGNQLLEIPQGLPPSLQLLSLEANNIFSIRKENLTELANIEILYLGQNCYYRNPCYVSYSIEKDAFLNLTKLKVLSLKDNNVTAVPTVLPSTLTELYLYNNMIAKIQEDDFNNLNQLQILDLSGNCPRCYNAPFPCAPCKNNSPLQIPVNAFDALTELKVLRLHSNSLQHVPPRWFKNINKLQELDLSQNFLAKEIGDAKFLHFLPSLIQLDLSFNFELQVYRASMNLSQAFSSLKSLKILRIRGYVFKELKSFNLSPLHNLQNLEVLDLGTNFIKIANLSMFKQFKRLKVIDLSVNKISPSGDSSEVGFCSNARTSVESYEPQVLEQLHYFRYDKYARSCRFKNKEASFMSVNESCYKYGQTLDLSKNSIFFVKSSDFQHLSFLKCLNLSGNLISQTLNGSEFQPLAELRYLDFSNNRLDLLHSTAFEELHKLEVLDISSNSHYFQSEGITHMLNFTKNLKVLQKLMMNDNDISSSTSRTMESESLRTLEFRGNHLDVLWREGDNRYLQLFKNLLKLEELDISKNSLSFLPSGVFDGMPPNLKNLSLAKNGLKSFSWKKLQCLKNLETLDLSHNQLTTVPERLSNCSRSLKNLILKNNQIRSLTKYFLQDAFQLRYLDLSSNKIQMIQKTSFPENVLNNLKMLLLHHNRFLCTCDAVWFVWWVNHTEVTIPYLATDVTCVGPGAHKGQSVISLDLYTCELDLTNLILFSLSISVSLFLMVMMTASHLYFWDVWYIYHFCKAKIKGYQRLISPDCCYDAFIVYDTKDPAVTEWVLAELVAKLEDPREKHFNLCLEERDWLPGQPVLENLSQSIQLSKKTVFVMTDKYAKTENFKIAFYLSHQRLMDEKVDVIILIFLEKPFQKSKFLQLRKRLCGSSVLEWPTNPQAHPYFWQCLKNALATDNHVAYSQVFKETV
In words: TLR7 inhibition reporter assay (HEK-Blue cells, SEAP reporter, gardiquimod stimulation). Type of test: cell-based. To be noted: HEK-Blue cells overexpressing human TLR7, gardiquimod 7.5 μM. The essentials:
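SEAP readout via HEK-Blue Detection medium after 22 h at 37 °C, 5% CO2 defines inhibition, normalized between agonist-plus-DMSO wells and a reference inhibitor. Compound dose range 0.05 nM–50 μM; TLR7 cells at 15,000/well (gardiquimod), TLR8 at 20,000/well (R848).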
(In general: In a reporter assay the amount or activity of a reporter protein is the signal.)

A further test deals with T2, human TLR9 (Homo sapiens, UniProt Q9NR96).
T2 construct: host or cells: HEK-Blue cells
T2 sequence (Q9NR96 26-1032): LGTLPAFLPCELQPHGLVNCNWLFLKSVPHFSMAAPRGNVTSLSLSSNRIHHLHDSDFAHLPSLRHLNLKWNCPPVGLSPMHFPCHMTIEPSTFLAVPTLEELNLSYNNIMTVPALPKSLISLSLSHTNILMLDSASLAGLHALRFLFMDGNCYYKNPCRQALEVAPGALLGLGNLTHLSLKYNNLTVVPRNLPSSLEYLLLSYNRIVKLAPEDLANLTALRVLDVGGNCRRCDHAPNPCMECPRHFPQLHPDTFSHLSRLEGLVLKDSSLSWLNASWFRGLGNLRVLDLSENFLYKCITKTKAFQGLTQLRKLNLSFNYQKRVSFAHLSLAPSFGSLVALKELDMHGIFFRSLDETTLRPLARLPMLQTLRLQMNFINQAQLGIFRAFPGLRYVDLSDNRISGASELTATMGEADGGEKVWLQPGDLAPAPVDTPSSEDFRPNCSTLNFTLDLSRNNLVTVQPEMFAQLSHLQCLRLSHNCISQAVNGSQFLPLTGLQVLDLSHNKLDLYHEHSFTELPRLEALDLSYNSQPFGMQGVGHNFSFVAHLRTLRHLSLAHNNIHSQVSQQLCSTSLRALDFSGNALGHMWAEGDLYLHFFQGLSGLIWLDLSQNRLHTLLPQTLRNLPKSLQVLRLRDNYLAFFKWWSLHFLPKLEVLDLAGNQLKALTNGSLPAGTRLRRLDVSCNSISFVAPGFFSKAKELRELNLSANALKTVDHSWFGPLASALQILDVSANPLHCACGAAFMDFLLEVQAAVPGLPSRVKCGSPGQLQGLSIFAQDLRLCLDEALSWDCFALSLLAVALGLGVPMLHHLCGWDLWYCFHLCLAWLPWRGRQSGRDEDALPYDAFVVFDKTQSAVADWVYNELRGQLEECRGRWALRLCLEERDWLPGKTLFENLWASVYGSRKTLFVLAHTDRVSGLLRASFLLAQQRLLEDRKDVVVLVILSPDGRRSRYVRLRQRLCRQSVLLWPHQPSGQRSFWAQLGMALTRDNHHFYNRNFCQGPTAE
In words: TLR9 inhibition reporter assay (HEK-Blue cells, SEAP reporter, ODN2006 stimulation). Type of test: cell-based. To be noted: HEK-Blue cells overexpressing human TLR9, ODN2006 5 nM. The essentials:
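HEK-Blue cells overexpressing human TLR7, TLR8 or TLR9 carry a SEAP reporter driven by NF-κB/AP-1 sites. Compounds (0.05 nM–50 μM) were preincubated 30 min at room temperature, then cells were stimulated with gardiquimod 7.5 μM (TLR7), R848 15.9 μM (TLR8) or ODN2006 5 nM (TLR9) for 22 h at 37 °C.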

Where a name gives a salt, the structure may show the parent alone.

For `COc1ccc(-c2[nH]c3ccc(C4CCN(C)CC4)cc3c2CC(F)(F)F)cc1OC` [Example 355, 2-(3,4-dimethoxyphenyl)-5-(1-methylpiperidin-4-yl)-3-(2,2,2-trifluoroethyl)-1H-indole], the IC50 against human TLR7 was 19 nM; on human TLR9, 2280 nM.
The corresponding values for `COc1ccc(-c2[nH]c3ccc(C4CCN(CC(=O)N5CC[C@@H](N(C)C)C5)CC4)cc3c2CC(F)(F)F)cc1OC` [Example 373, (R)-2-(4-(2-(3,4-dimethoxyphenyl)-3-(2,2,2-trifluoroethyl)-1H-indol-5-yl)piperidin-1-yl)-1-(3-(dimethylamino)pyrrolidin-1-yl)ethan-1-one] are 16 nM and 370 nM.
The corresponding values for `COc1ccc(-c2[nH]c3ccc(C4CCN(C(=O)CN(C)C)CC4)cc3c2CC(F)(F)F)cc1OC` [Example 354, 1-(4-(2-(3,4-dimethoxyphenyl)-3-(2,2,2-trifluoroethyl)-1H-indol-5-yl)piperidin-1-yl)-2-(dimethylamino)ethan-1-one] are 22 nM and 2150 nM.
In the same order, the values of `COc1ccc(-c2[nH]c3ccc(C4CCNCC4)cc3c2CC(F)(F)F)cc1OC` [Example 329, 2-(3,4-dimethoxyphenyl)-5-(piperidin-4-yl)-3-(2,2,2-trifluoroethyl)-1H-indole] are 15 nM and 1160 nM.
Turning to `CCN(CC)C(=O)C1CCCN(CC(=O)N2CCC(c3ccc4[nH]c(-c5ccc(OC)c(OC)c5)c(C5CCOCC5)c4c3)CC2)C1` (stereo not drawn) [Example 391, 1-(2-(4-(2-(3,4-dimethoxyphenyl)-3-(tetrahydro-2H-pyran-4-yl)-1H-indol-5-yl)piperidin-1-yl)-2-oxoethyl)-N,N-diethylpiperidine-3-carboxamide], the IC50 on human TLR7 worked out at 626 nM; against human TLR9, 5400 nM.
In the same order, the values of `COc1ccc(-c2[nH]c3ccc(C4CCN(CC(=O)NCC(N)=O)CC4)cc3c2CC(F)(F)F)cc1OC` [Example 385, N-(2-amino-2-oxoethyl)-2-(4-(2-(3,4-dimethoxyphenyl)-3-(2,2,2-trifluoroethyl)-1H-indol-5-yl)piperidin-1-yl)acetamide] are 61 nM and 4250 nM.
For the compound `COc1ccc(-c2[nH]c3ccc(C4CCN(CC(=O)NCC#N)CC4)cc3c2CC(F)(F)F)cc1OC` [Example 381, N-(cyanomethyl)-2-(4-(2-(3,4-dimethoxyphenyl)-3-(2,2,2-trifluoroethyl)-1H-indol-5-yl)piperidin-1-yl)acetamide], the IC50 was 63 nM against human TLR7 and 5910 nM against human TLR9.
Take `COc1ccc(-c2[nH]c3ccc(C4CCNCC4(F)F)cc3c2C(C)C)cc1OC` (stereo not drawn) [Example 325, 5-(3,3-difluoropiperidin-4-yl)-2-(3,4-dimethoxyphenyl)-3-isopropyl-1H-indole]: the figures for the IC50 on human TLR7 and at human TLR9 were 269 nM and ≥ 50000 nM, respectively.
The corresponding values for `CCN1CCCC(N2CCC(c3ccc4[nH]c(-c5ccc(OC)c(OC)c5)c(C)c4c3)CC2)C1` (stereo not drawn) [Example 24, 2-(3,4-dimethoxyphenyl)-5-(1′-ethyl-[1,3′-bipiperidin]-4-yl)-3-methyl-1H-indole] are ≥ 50000 nM and 17500 nM.
In the same order, the values of `COc1ccc(-c2[nH]c3ccc(C4CCN(C(=O)COc5cccnc5)CC4)cc3c2CC(F)(F)F)cc1OC` [Example 349, 1-(4-(2-(3,4-dimethoxyphenyl)-3-(2,2,2-trifluoroethyl)-1H-indol-5-yl)piperidin-1-yl)-2-(pyridin-3-yloxy)ethan-1-one] are 291 nM and 9730 nM.
In the same order, the values of `COc1ccc(-c2[nH]c3ccc(C4CCN(C(=O)CN(C)C)CC4)cc3c2C(O)C(F)(F)F)cc1OC` (stereo not drawn) [Example 395, 1-(4-(2-(3,4-dimethoxyphenyl)-3-(2,2,2-trifluoro-1-hydroxyethyl)-1H-indol-5-yl)piperidin-1-yl)-2-(dimethylamino)ethan-1-one] are 61 nM and 13200 nM.
Regarding `COc1ccc(-c2[nH]c3ccc(C4CCN(CC(=O)NCCNC(C)=O)CC4)cc3c2CC(F)(F)F)cc1OC` [Example 379, N-(2-acetamidoethyl)-2-(4-(2-(3,4-dimethoxyphenyl)-3-(2,2,2-trifluoroethyl)-1H-indol-5-yl)piperidin-1-yl)acetamide], the IC50 against human TLR7 was determined as 94 nM; at human TLR9 it was 4230 nM.
The corresponding values for `COc1ccc(-c2[nH]c3ccc(C4CCN(C(=O)Cc5cnccn5)CC4)cc3c2CC(F)(F)F)cc1OC` [Example 342, 1-(4-(2-(3,4-dimethoxyphenyl)-3-(2,2,2-trifluoroethyl)-1H-indol-5-yl)piperidin-1-yl)-2-(pyrazin-2-yl)ethan-1-one] are 240 nM and 26400 nM.
With `COc1ccc(-c2[nH]c3ccc(C4CCN(C(=O)CC(F)(F)F)CC4)cc3c2CC(F)(F)F)cc1OC` [Example 339, 1-(4-(2-(3,4-dimethoxyphenyl)-3-(2,2,2-trifluoroethyl)-1H-indol-5-yl)piperidin-1-yl)-3,3,3-trifluoropropan-1-one], the IC50 is 331 nM against human TLR7 and ≥ 50000 nM on human TLR9.
On to `COc1ccc(-c2[nH]c3ccc(C4CCN(C(=O)CCn5cccc5)CC4)cc3c2CC(F)(F)F)cc1OC` [Example 344, 1-(4-(2-(3,4-dimethoxyphenyl)-3-(2,2,2-trifluoroethyl)-1H-indol-5-yl)piperidin-1-yl)-3-(1H-pyrrol-1-yl)propan-1-one], for which the values for the IC50 against human TLR7 and on human TLR9 were 881 nM and ≥ 50000 nM, respectively.
For `COc1ccc(-c2[nH]c3ccc(C4CCN(C(=O)Cc5ccc(N(C)C)cc5)CC4)cc3c2CC(F)(F)F)cc1OC` [Example 338, 1-(4-(2-(3,4-dimethoxyphenyl)-3-(2,2,2-trifluoroethyl)-1H-indol-5-yl)piperidin-1-yl)-2-(4-(dimethylamino)phenyl)ethan-1-one], the values for the IC50 against human TLR7 and against human TLR9 were 1490 nM and ≥ 50000 nM, respectively.
With `COc1ccc(-c2[nH]c3ccc(C4CCNCC4F)cc3c2C(C)C)cc1OC` (single isomer, unassigned) [Example 322, 2-(3,4-dimethoxyphenyl)-5-(3-fluoropiperidin-4-yl)-3-isopropyl-1H-indole], the results for the IC50 at human TLR7 and against human TLR9 were 21 nM and 2790 nM, respectively.
In the same order, the values of `CCc1c(-c2ccc(OC)c(OC)c2)[nH]c2cc(C)c(C3CCNCC3)cc12` [Example 396, 2-(3,4-dimethoxyphenyl)-3-ethyl-6-methyl-5-(piperidin-4-yl)-1H-indole, HCl] are 47 nM and 3430 nM.
